Twelve compounds from patent US10519152B2, “Compounds and their use in treating cancer” (AstraZeneca AB, priority 2017, dated 2019) can be followed below.

The target in this assay is T1, Estrogen Receptor (ERα) in MCF-7 human ductal carcinoma breast cell line (Homo sapiens, UniProt P03372).
T1 construct: endogenous in cells; host or cells: MCF-7
T1 sequence (P03372 1-595): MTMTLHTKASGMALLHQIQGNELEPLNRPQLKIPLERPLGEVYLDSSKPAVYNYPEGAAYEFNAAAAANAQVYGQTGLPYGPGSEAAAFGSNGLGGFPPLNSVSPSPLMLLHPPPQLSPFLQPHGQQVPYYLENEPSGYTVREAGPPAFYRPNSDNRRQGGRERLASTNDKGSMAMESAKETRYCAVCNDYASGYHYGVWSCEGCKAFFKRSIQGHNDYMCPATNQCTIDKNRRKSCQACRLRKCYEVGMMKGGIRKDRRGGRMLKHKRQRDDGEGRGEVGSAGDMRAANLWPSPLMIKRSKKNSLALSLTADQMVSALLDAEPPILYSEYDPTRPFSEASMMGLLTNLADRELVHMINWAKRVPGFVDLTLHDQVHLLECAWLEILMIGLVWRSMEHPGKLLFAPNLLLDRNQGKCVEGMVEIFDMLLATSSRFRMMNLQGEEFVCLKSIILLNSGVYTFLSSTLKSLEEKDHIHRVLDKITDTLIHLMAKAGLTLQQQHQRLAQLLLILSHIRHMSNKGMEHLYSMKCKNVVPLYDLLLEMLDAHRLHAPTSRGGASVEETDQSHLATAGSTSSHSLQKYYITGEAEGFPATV
Description: MCF-7 ER degradation assay (cell based immuno-fluorescence). To be noted: MCF-7 cells; for ER degradation ≥ 90% at 0.3 μM: ER degradation by fulvestrant at 0.3 μM is defined as 100%; for DC50: 18-22 hours incubation, 50% reduction of ERα expression, single experiment or average of two or more, read-out: MCF-7 ER degradation IC50. The method in brief:
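MCF-7 human ductal carcinoma breast cells were seeded at 3.75×10^4 cells per mL (40 μL per well) in 384 well plates with phenol red free DMEM containing 2 mM L-Glutamine and 5% (v/v) Charcoal/Dextran treated foetal calf serum. After overnight culture, compounds were acoustically dispensed, incubated 18-22 hours, then cells were formaldehyde-fixed and immunostained for ERα.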

Molecules are shown by their SMILES.

In the case of `Cc1ncsc1-c1ccc(CNC(=O)[C@@H]2C[C@@H](O)CN2C(=O)[C@@H](NC(=O)CCCCCOCCCCOc2cc(F)c([C@@H]3c4[nH]c5ccccc5c4C[C@@H](C)N3CC(C)(C)F)c(F)c2)C(C)(C)C)cc1` [Example 109, (2S,4R)-1-((S)-2-(6-(4-(3,5-difluoro-4-((1R,3R)-2-(2-fluoro-2-methylpropyl)-3-methyl-2,3,49-tetrahydro-1H-pyrido[3,4-b]indol-1-yl)phenoxy)butoxy)hexanamido)-3,3-dimethylbutanoyl)-4-hydroxy-N-(4-(4-methylthiazol-5-yl)benzyl)pyrrolidine-2-carboxamide], the “ER degradation ≥ 90% at 0.3 μM” value was “••” and the DC50 was determined as 1 nM.

Turning to `Cc1ncsc1-c1ccc(CNC(=O)[C@@H]2C[C@@H](O)CN2C(=O)[C@@H](NC(=O)CCCCCCOCCCOc2cc(F)c([C@@H]3c4[nH]c5ccccc5c4C[C@@H](C)N3CC(C)(C)F)c(F)c2)C(C)(C)C)cc1` [Example 110, (2S,4R)-1-((S)-2-(7-(3-(3,5-difluoro-4-((1R,3R)-2-(2-fluoro-2-methylpropyl)-3-methyl-2,3,4,9-tetrahydro-1H-pyrido[3,4-b]indol-1-yl)phenoxy)propoxy)heptanamido)-3,3-dimethylbutanoyl)-4-hydroxy-N-(4-(4-methylthiazol-5-yl)benzyl)pyrrolidine-2-carboxamide], the “ER degradation ≥ 90% at 0.3 μM” value was “••” and the DC50 is 1.7 nM.

Regarding `Cc1ncsc1-c1ccc(CNC(=O)[C@@H]2C[C@@H](O)CN2C(=O)[C@@H](NC(=O)CCCCCCCOCCOc2cc(F)c([C@@H]3c4[nH]c5ccccc5c4C[C@@H](C)N3CC(C)(C)F)c(F)c2)C(C)(C)C)cc1` [Example 111, (2S,4R)-1-((S)-2-(8-(2-(3,5-Difluoro-4-((1R,3R)-2-(2-fluoro-2-methylpropyl)-3-methyl-2,3,4,9-tetrahydro-1H-pyrido[3,4-b]indol-1-yl)phenoxy)ethoxy)octanamido)-3,3-dimethylbutanoyl)-4-hydroxy-N-(4-(4-methylthiazol-5-yl)benzyl)pyrrolidine-2-carboxamide], the “ER degradation ≥ 90% at 0.3 μM” value is “•” and the DC50 is 0.8 nM.

On to `Cc1ncsc1-c1ccc(CNC(=O)[C@@H]2C[C@@H](O)CN2C(=O)[C@@H](NC(=O)CCCOCCCCCCOc2cc(F)c([C@@H]3c4[nH]c5ccccc5c4C[C@@H](C)N3CC(C)(C)F)c(F)c2)C(C)(C)C)cc1` [Example 112, (2S,4R)-1-((S)-2-(4-((6-(3,5-difluoro-4-((1R,3R)-2-(2-fluoro-2-methylpropyl)-3-methyl-2,3,4,9-tetrahydro-1H-pyrido[3,4-b]indol-1-yl)phenoxy)hexyl)oxy)butanamido)-3,3-dimethylbutanoyl)-4-hydroxy-N-(4-(4-methylthiazol-5-yl)benzyl)pyrrolidine-2-carboxamide], for which the “ER degradation ≥ 90% at 0.3 μM” value is given as “••” and the DC50 worked out at 2.2 nM.

On to `Cc1ncsc1-c1ccc(CNC(=O)[C@@H]2C[C@@H](O)CN2C(=O)[C@@H](NC(=O)CCCCOCCCCCOc2cc(F)c([C@@H]3c4[nH]c5ccccc5c4C[C@@H](C)N3CC(C)(C)F)c(F)c2)C(C)(C)C)cc1` [Example 113, (2S,4R)-1-((S)-2-(5-((5-(3,5-Difluoro-4-((1R,3R)-2-(2-fluoro-2-methylpropyl)-3-methyl-2,3,4,9-tetrahydro-1H-pyrido[3,4-b]indol-1-yl)phenoxy)pentyl)oxy)pentanamido)-3,3-dimethylbutanoyl)-4-hydroxy-N-(4-(4-methylthiazol-5-yl)benzyl)pyrrolidine-2-carboxamide], for which the “ER degradation ≥ 90% at 0.3 μM” value is given as “••” and the DC50 was found to be 0.9 nM.

Regarding `Cc1ncsc1-c1ccc([C@H](C)NC(=O)[C@@H]2C[C@@H](O)CN2C(=O)[C@@H](NC(=O)CCOCCCCCCCOc2cc(F)c([C@@H]3c4[nH]c5ccccc5c4C[C@@H](C)N3CC(C)(C)F)c(F)c2)C(C)(C)C)cc1` [Example 114, (2S,4R)-1-((S)-2-(3-((7-(3,5-difluoro-4-((1R,3R)-2-(2-fluoro-2-methylpropyl)-3-methyl-2,3,4,9-tetrahydro-1H-pyrido[3,4-b]indol-1-yl)phenoxy)heptyl)oxy)propanamido)-3,3-dimethylbutanoyl)-4-hydroxy-N—((S)-1-(4-(4-methylthiazol-5-yl)phenyl)ethyl)pyrrolidine-2-carboxamide], the “ER degradation ≥ 90% at 0.3 μM” value is on record as “••” and the DC50 was 3.6 nM.

As for `Cc1ncsc1-c1ccc(CNC(=O)[C@@H]2C[C@@H](O)CN2C(=O)[C@@H](NC(=O)CCOCCCCCCCOc2cc(F)c([C@@H]3c4[nH]c5ccccc5c4C[C@@H](C)N3CC(C)(C)F)c(F)c2)C(C)(C)C)cc1` [Example 115, (2S,4R)-1-((S)-2-(3-((7-(3,5-difluoro-4-((1R,3R)-2-(2-fluoro-2-methylpropyl)-3-methyl-2,3,4,9-tetrahydro-1H-pyrido[3,4-b]indol-1-yl)phenoxy)heptyl)oxy)propanamido)-3,3-dimethylbutanoyl)-4-hydroxy-N-(4-(4-methylthiazol-5-yl)benzyl)pyrrolidine-2-carboxamide], the “ER degradation ≥ 90% at 0.3 μM” value is “••” and the DC50 came out at 3.4 nM.

Take `Cc1ncsc1-c1ccc(CNC(=O)[C@@H]2C[C@@H](O)CN2C(=O)[C@@H](NC(=O)C(F)(F)OCCCCCCOc2cc(F)c([C@@H]3c4[nH]c5ccccc5c4C[C@@H](C)N3CC(C)(C)F)c(F)c2)C(C)(C)C)cc1` [Example 116, (2S,4R)-1-((S)-2-(2-((6-(3,5-Difluoro-4-((1R,3R)-2-(2-fluoro-2-methylpropyl)-3-methyl-2,3,4,9-tetrahydro-1H-pyrido[3,4-b]indol-1-yl)phenoxy)hexyl)oxy)-2,2-difluoroacetamido)-3,3-dimethylbutanoyl)-4-hydroxy-N-(4-(4-methylthiazol-5-yl)benzyl)pyrrolidine-2-carboxamide]: the “ER degradation ≥ 90% at 0.3 μM” value is on record as “•” and the DC50 was determined as 5.3 nM.

Consider `Cc1ncsc1-c1ccc(CNC(=O)[C@@H]2C[C@@H](O)CN2C(=O)[C@@H](NC(=O)C2(OCCCCCCOc3cc(F)c([C@@H]4c5[nH]c6ccccc6c5C[C@@H](C)N4CC(C)(C)F)c(F)c3)CC2)C(C)(C)C)cc1` [Example 118, (2S,4R)-1-((S)-2-(1-((6-(3,5-difluoro-4-((1R,3R)-2-(2-fluoro-2-methylpropyl)-3-methyl-2,3,4,9-tetrahydro-1H-pyrido[3,4-b]indol-1-yl)phenoxy)hexyl)oxy)cyclopropane-1-carboxamido)-3,3-dimethylbutanoyl)-4-hydroxy-N-(4-(4-methylthiazol-5-yl)benzyl)pyrrolidine-2-carboxamide], for which the “ER degradation ≥ 90% at 0.3 μM” value is recorded as “•” and the DC50 came out at 4.7 nM.

As for `Cc1ncsc1-c1ccc(CNC(=O)[C@@H]2C[C@@H](O)CN2C(=O)[C@@H](NC(=O)C(F)(F)OCCCOCCCOc2cc(F)c([C@@H]3c4[nH]c5ccccc5c4C[C@@H](C)N3CC(C)(C)F)c(F)c2)C(C)(C)C)cc1` [Example 119, (2S,4R)-1-((S)-2-(2-(3-(3-(3,5-Difluoro-4-((1R,3R)-2-(2-fluoro-2-methylpropyl)-3-methyl-2,3,4,9-tetrahydro-1H-pyrido[3,4-b]indol-1-yl)phenoxy)propoxy)propoxy)-2,2-difluoroacetamido)-3,3-dimethylbutanoyl)-4-hydroxy-N-(4-(4-methylthiazol-5-yl)benzyl)pyrrolidine-2-carboxamide], the “ER degradation ≥ 90% at 0.3 μM” value is listed as “•” and the DC50 came to 1.4 nM.

In the case of `Cc1ncsc1-c1ccc([C@H](C)NC(=O)[C@@H]2C[C@@H](O)CN2C(=O)[C@@H](NC(=O)C(F)(F)OCCCOCCCOc2cc(F)c([C@@H]3c4[nH]c5ccccc5c4C[C@@H](C)N3CC(C)(C)F)c(F)c2)C(C)(C)C)cc1` [Example 120, (2S,4R)-1-((S)-2-(2-(3-(3-(3,5-Difluoro-4-((1R,3R)-2-(2-fluoro-2-methylpropyl)-3-methyl-2,3,4,9-tetrahydro-1H-pyrido[3,4-b]indol-1-yl)phenoxy)propoxy)propoxy)-2,2-difluoroacetamido)-3,3-dimethylbutanoyl)-4-hydroxy-N—((S)-1-(4-(4-methylthiazol-5-yl)phenyl)ethyl)pyrrolidine-2-carboxamide], the “ER degradation ≥ 90% at 0.3 μM” value is listed as “••” and the DC50 turned out to be 1.6 nM.

In the case of `Cc1ncsc1-c1ccc(CNC(=O)[C@@H]2C[C@@H](O)CN2C(=O)[C@@H](NC(=O)C(F)(F)OCCOCCCCOc2cc(F)c([C@@H]3c4[nH]c5ccccc5c4C[C@@H](C)N3CC(C)(C)F)c(F)c2)C(C)(C)C)cc1` [Example 121, (2S,4R)-1-((S)-2-(2-(2-(4-(3,5-Difluoro-4-((1R,3R)-2-(2-fluoro-2-methylpropyl)-3-methyl-2,3,4,9-tetrahydro-1H-pyrido[3,4-b]indol-1-yl)phenoxy)butoxy)ethoxy)-2,2-difluoroacetamido)-3,3-dimethylbutanoyl)-4-hydroxy-N-(4-(4-methylthiazol-5-yl)benzyl)pyrrolidine-2-carboxamide], the “ER degradation ≥ 90% at 0.3 μM” value is given as “•” and the DC50 was determined as 2.6 nM.
